According to publication PMC9369335, “Tailoring the Structure of Cell Penetrating DNA and RNA Binding Nucleopeptides” (International Journal of Molecular Sciences, 2022):
Square brackets hold non-standard residues; d marks the D form. Peptide text beside a SMILES is read from it. * marks the point of attachment. FITC = O=C1OC2(c3ccc(O)cc3Oc3cc(O)ccc32)c2ccc(NC(=S)*)cc21; Acetyl(thymin-1-yl) = Cc1cn(CC(=O)*)c(=O)[nH]c1=O; Dab = NCC[C@H](N)C(=O)O; Ahx = NCCCCCC(=O)O

System: HT29, CCRF-CEM and Jurkat cells
Assay: Cellular and nuclear uptake of FITC-labelled nucleopeptides by flow cytometry
Type: cell-based, human
Conditions: 10 µM, 3 h, 37 °C, comparison in words
Experimental: The promising results achieved with 32 and 33 in terms of DNA and RNA recognition and binding studies prompted us to investigate their capability to cross the cellular membrane and to distribute between cytoplasm and nucleus. Specifically, cell penetration experiments were carried out employing 34 and 35 (the FITC-labelled derivatives of 32 and 33, respectively) on three different cancer cell lines (Jurkat, HT29 and CEM). […]
The fluorescence of Fluorescein Isothiocyanate (FITC) (excitation 488 nm, emission 525 nm) was used to evaluate the intracellular and intranuclear nucleopeptides uptake using flow cytometry. […] To evaluate cellular uptake, the cell pellets were suspended in 500 µL of PBS and analyzed by flow cytometry. For nuclear uptake, the nuclei were extracted with PBS-Triton (0.5%) for 15 min at room temperature (RT), washed with PBS-Triton (0.1%), suspended in 500 µL of PBS and analyzed by FACS ARIA III flow cytometry (BD Bioscience, Mountain View, CA, USA) with DIVA software 8.01. […] The uptake was evaluated as mean fluorescence and was analyzed using FlowJo 10.7.1 software.

Cc1cn(CC(=O)NCC[C@H](NC(=O)CCCCCNC(=S)Nc2ccc3c(c2)C(=O)OC32c3ccc(O)cc3Oc3cc(O)ccc32)C(=O)N[C@@H](CCCNC(=N)N)C(=O)N[C@@H](CCNC(=O)Cn2cc(C)c(=O)[nH]c2=O)C(=O)N[C@@H](CCCNC(=N)N)C(=O)N[C@@H](CCNC(=O)Cn2cc(C)c(=O)[nH]c2=O)C(=O)N[C@@H](CCCNC(=N)N)C(=O)N[C@@H](CCNC(=O)Cn2cc(C)c(=O)[nH]c2=O)C(=O)N[C@@H](CCCNC(=N)N)C(=O)N[C@@H](CCNC(=O)Cn2cc(C)c(=O)[nH]c2=O)C(=O)N[C@@H](CCCNC(=N)N)C(=O)N[C@@H](CCNC(=O)Cn2cc(C)c(=O)[nH]c2=O)C(=O)N[C@@H](CCCNC(=N)N)C(N)=O)c(=O)[nH]c1=O [compound 34] ({FITC-Ahx}-[Dab](Acetyl(thymin-1-yl))R[Dab](Acetyl(thymin-1-yl))R[Dab](Acetyl(thymin-1-yl))R[Dab](Acetyl(thymin-1-yl))R[Dab](Acetyl(thymin-1-yl))R[Dab](Acetyl(thymin-1-yl))R-NH2)
concentration in cytoplasm (cellular uptake, mean fluorescence) (1 × 10^6 cells): significantly higher than 35
concentration in nucleus (nuclear uptake, mean fluorescence) (nuclei extracted with PBS-Triton 0.5%): significantly higher than 35
